Key:
[1] = system: Ehrlich ascites carcinoma cells; conditions: for ED50: maximum dose level at which mice survive 100 to 200 percent of control survival days, intraperitoneally once a day for 10 days, doses 25 mg/kg to 0.19 mg/kg; for anti-tumor effect (in words): mouse, in vivo
[2] = tumour-inoculated ICR/JCL mice, intraperitoneally once a day for 10 days, doses 25 mg/kg to 0.19 mg/kg, Behres-Karber's method, observed up to 50 days
[3] = system: Ehrlich ascites carcinoma cells; experiment: Life-prolongation effect and toxicity in mice inoculated with ascites type Ehrlich carcinoma; conditions: mouse, in vivo

Compound	ED50 [1]	LD50 [2]	anti-tumor effect (in words) [1]	toxicity (in words) [3]
Cc1c(N)nc([C@H](CC(N)=O)NC[C@H](N)C(N)=O)nc1C(=O)N[C@H](C(=O)N[C@H](C)[C@@H](O)[C@H](C)C(=O)N[C@H](C(=O)NCCc1nc(-c2nc(C(=O)NCCCCN=C(N)N)cs2)cs1)[C@@H](C)O)[C@@H](O[C@@H]1O[C@@H](CO)[C@@H](O)[C@H](O)[C@@H]1O[C@H]1O[C@H](CO)[C@@H](O)[C@H](OC(N)=O)[C@@H]1O)c1cnc[nH]1 [Compound 3, Bleomycin B2, reference compound]	0.78	7.5		
Cc1c(N)nc(C(CC(N)=O)NCC(N)C(N)=O)nc1C(=O)NC(C(=O)NC(C)C(O)C(C)C(=O)NC(C(=O)NCCc1nc(-c2nc(C(=O)NCCCNCCCN(C)C)cs2)cs1)C(C)O)C(OC1OC(CO)C(O)C(O)C1OC1OC(CO)C(O)C(OC(N)=O)C1O)c1cnc[nH]1 (stereo not shown) [Compound 21]	0.19	10.3		
Cc1c(N)nc(C(CC(N)=O)NCC(N)C(N)=O)nc1C(=O)NC(C(=O)NC(C)C(O)C(C)C(=O)NC(C(=O)NCCc1nc(-c2nc(C(=O)NCCCNCCCNC(C)c3ccccc3)cs2)cs1)C(C)O)C(OC1OC(CO)C(O)C(O)C1OC1OC(CO)C(O)C(OC(N)=O)C1O)c1cnc[nH]1 (stereo not shown) [Compound 15]	0.39	13.1		
Cc1c(N)nc([C@H](CC(N)=O)NC[C@H](N)C(N)=O)nc1C(=O)N[C@H](C(=O)N[C@H](C)[C@@H](O)[C@H](C)C(=O)N[C@H](C(=O)NCCc1nc(-c2nc(C(=O)NCCCNCCCCN)cs2)cs1)[C@@H](C)O)[C@@H](O[C@@H]1O[C@@H](CO)[C@@H](O)[C@H](O)[C@@H]1O[C@@H]1O[C@H](CO)[C@@H](O)[C@H](OC(N)=O)[C@@H]1O)c1cnc[nH]1 [Compound 7, Bleomycin A5, reference compound]	0.19	15.6	strong in anti-tumor property	less in toxicity
Cc1c(N)nc(C(CC(N)=O)NCC(N)C(N)=O)nc1C(=O)NC(C(=O)NC(C)C(O)C(C)C(=O)NC(C(=O)NCCc1nc(-c2nc(C(=O)NCCCNC(C)c3ccccc3)cs2)cs1)C(C)O)C(OC1OC(CO)C(O)C(O)C1OC1OC(CO)C(O)C(OC(N)=O)C1O)c1cnc[nH]1 (stereo not shown) [Compound 35, 3-(1-phenylethyl)-aminopropyl-amino-bleomycin]	0.19		excellent in effect	less toxicity
